Experiments:
PC12 cells [1] = assay: Etoposide-induced apoptosis in PC12 cells, cell viability; type: cell-based; settings: for viability at 1 µM / viability at 3 µM / viability at 10 µM / viability at 30 µM / viability at 0.1 µM / viability at 0.3 µM: Rattus norvegicus, PC-12; for viability at 1 µM: read-out: % Viability 1 μM; for viability at 3 µM: read-out: % Viability 3 μM; for viability at 10 µM: read-out: % Viability 10 μM; for viability at 30 µM: read-out: % Viability 30 μM; for viability at 0.1 µM: 0.1 μM compound, vehicle 52.1 ± 7.32; for viability at 0.3 µM: 0.3 μM compound
PC12 cells [2] = assay: Serum starvation-induced apoptosis in PC12 cells, cell viability; type: cell-based; settings: serum starvation-induced apoptosis, PC12 cells; for viability at 1 µM / viability at 3 µM / viability at 10 µM / viability at 30 µM: Rattus norvegicus, PC-12; for viability at 1 µM: read-out: % Viability 1 μM; for viability at 3 µM: read-out: % Viability 3 μM; for viability at 10 µM: read-out: % Viability 10 μM; for viability at 30 µM: read-out: % Viability 30 μM
[3] = 1 μM compound, etoposide-induced apoptosis, PC12 cells
[4] = 3 μM compound, etoposide-induced apoptosis, PC12 cells
[5] = 10 μM compound, etoposide-induced apoptosis, PC12 cells
[6] = 30 μM compound, etoposide-induced apoptosis, PC12 cells
[7] = 1 μM compound, vehicle 55.04 ± 8.99
[8] = etoposide-induced apoptosis, PC12 cells

| Compound | viability at 1 µM (PC12 cells [1]; [3]) [%] | viability at 3 µM (PC12 cells [1]; [4]) [%] | viability at 10 µM (PC12 cells [1]; [5]) [%] | viability at 30 µM (PC12 cells [1]; [6]) [%] | protective activity in WT PC12 etoposide assay (PC12 cells [1]; WT PC12 cells, etoposide) | viability at 1 µM (PC12 cells [2]; [7]) [%] | viability at 3 µM (PC12 cells [2]; 3 μM compound) [%] | viability at 10 µM (PC12 cells [2]; 10 μM compound) [%] | viability at 30 µM (PC12 cells [2]; 30 μM compound) [%] | % Viability 1 μM (PC12 cells [1]; [3]) [%] | % Viability 3 μM (PC12 cells [1]; [4]) [%] | % Viability 10 μM (PC12 cells [1]; [5]) [%] | % Viability 30 μM (PC12 cells [1]; [6]) [%] | % Viability 1 μM (PC12 cells [2]; [7]) [%] | % Viability 3 μM (PC12 cells [2]; 3 μM compound) [%] | % Viability 10 μM (PC12 cells [2]; 10 μM compound) [%] | % Viability 30 μM (PC12 cells [2]; 30 μM compound) [%] | viability at 0.1 µM (PC12 cells [1]; [8]) [%] | viability at 0.3 µM (PC12 cells [1]; [8]) [%] |
| --- | --- | --- | --- | --- | --- | --- | --- | --- | --- | --- | --- | --- | --- | --- | --- | --- | --- | --- | --- |
| CCOC(=O)Nc1ccc(NCc2ccc(C)cc2)cc1N [JG-32-3, Ethyl (2-amino-4-((4-methylbenzyl)amino)phenyl)carbamate] | 110 ± 39.4 | 136 ± 30.1 | 123 ± 23.2 | 98 ± 22.9 | significant increase in potency | 62.6 ± 16.7 | 79.54 ± 0.6 | 77.9 ± 1.34 | 71.33 ± 0.03 | – | – | – | – | – | – | – | – | – | – |
| Nc1ccc(N(Cc2ccc(F)cc2)C(=O)OCc2ccccc2)cc1N [NK-22-6] | 69.1 ± 20.1 | 100 ± 5.4 | 98.9 ± 7.93 | 78.6 ± 23 | – | 68.1 ± 8.86 | 82.5 ± 10.5 | 74.5 ± 8.48 | 37.4 ± 4.98 | – | – | – | – | – | – | – | – | – | – |
| 2-chloroethyl 6-(4-fluorobenzylamino)-2-aminopyridin-3-ylcarbamate [NK-23-1] | – | – | – | – | – | – | – | – | – | 54.01 ± 13.43 | 53.92 ± 6.37 | 41.79 ± 4.38 | 40.77 ± 6.98 | 84.07 ± 11.85 | 83.62 ± 5.88 | 100.15 ± 15.84 | 106.47 ± 15.46 | – | – |
| COC(=O)Nc1ccc(NCc2cccc(C(F)(F)F)c2)nc1N [NK-16-4, Methyl 6-(3-(trifluoromethyl)benzylamino)-2-aminopyridin-3-ylcarbamate] | 46.7 ± 3.26 | 41.3 ± 10.1 | 28.6 ± 2.14 | 37 ± 3.91 | – | 92.1 ± 10.2 | 88 ± 8.56 | 97.8 ± 9.35 | 97.6 ± 1800 | – | – | – | – | – | – | – | – | – | – |
| C=CCOC(=O)Nc1ccc(NCc2ccc(Cl)cc2)nc1N [JG-4-5] | 87.2 ± 19.8 | 79.7 ± 7.48 | 84.3 ± 13.2 | 80.4 ± 24.1 | – | 72.3 ± 1.45 | 95.2 ± 2.41 | 70.2 ± 9.45 | 71.1 ± 8.61 | – | – | – | – | – | – | – | – | – | – |
| COC(=O)Nc1ccc(NCc2ccc(F)cc2)nc1N [NK-3-1, Methyl 6-(4-fluorobenzylamino)-2-aminopyridin-3-ylcarbamate] | 74.5 ± 33.1 | 96.6 ± 14.6 | 82.2 ± 23.4 | 63.3 ± 27.4 | – | 76.9 ± 10.2 | 79.1 ± 8.28 | 72.2 ± 9.15 | 72.3 ± 16.4 | – | – | – | – | – | – | – | – | – | – |
| CCOC(=O)Nc1ccc(NCc2cc(C(F)(F)F)cc(C(F)(F)F)c2)nc1N [NK-17-3, Ethyl (2-amino-6-((3,5-bis(trifluoromethyl)benzyl)amino)pyridin-3-yl)carbamate] | 63.7 ± 22.7 | 75.7 ± 6.39 | 68.1 ± 9.52 | 56 ± 6.26 | – | 81.8 ± 8.69 | 72.8 ± 12.4 | 78.5 ± 6.27 | 57.9 ± 9.54 | – | – | – | – | – | – | – | – | – | – |
| CCOC(=O)Nc1ccc(NCc2cccc(C)c2)nc1N [NK-66-3, Ethyl (2-amino-6-((3-methylbenzyl)amino)pyridin-3-yl)carbamate] | 101 ± 17.4 | 82.3 ± 31.4 | 86.1 ± 26.9 | 107 ± 9.4 | – | – | – | – | – | – | – | – | – | – | – | – | – | 94.7 ± 25.8 | 110 ± 11.3 |
| CCOC(=O)Nc1ccc(NCc2ccc(C(F)(F)F)cc2)nc1 [AM-15-3, Ethyl (6-((4-(trifluoromethyl)benzyl)amino)pyridin-3-yl)carbamate] | 59 ± 12.9 | 64 ± 7.87 | 66.4 ± 4.11 | 52.9 ± 8.69 | – | – | – | – | – | – | – | – | – | – | – | – | – | 59.7 ± 6.74 | 54.1 ± 12.7 |
| CCOC(=O)Nc1ccc(NCc2ccc(OC)cc2)nc1N [AM-4-3, Ethyl (2-amino-6-((4-methoxybenzyl)amino)pyridin-3-yl)carbamate] | 71.8 ± 25.7 | 79.7 ± 10.6 | 90 ± 16.3 | 106 ± 13.3 | – | – | – | – | – | – | – | – | – | – | – | – | – | 86.8 ± 3.14 | 81.4 ± 13 |
| CCOC(=O)Nc1ccc(NCc2ccc(F)cc2F)nc1N [NK-64-3, Ethyl (2-amino-6-((2,4-difluorobenzyl)amino)pyridin-3-yl)carbamate] | 91 ± 19.8 | 78 ± 16.8 | 89.2 ± 4.4 | 90.7 ± 12.7 | – | – | – | – | – | – | – | – | – | – | – | – | – | 84 ± 21.9 | 93 ± 14.1 |
| CCOC(=O)Nc1ccc(OCc2ccc(C(F)(F)F)cc2)nc1N [NK-60-3, Ethyl (2-amino-6-((4-(trifluoromethyl)benzyl)oxy)pyridin-3-yl)carbamate] | 77.1 ± 7.31 | 69.9 ± 8.54 | 71.4 ± 19.6 | 77 ± 6.87 | – | – | – | – | – | – | – | – | – | – | – | – | – | 64 ± 11 | 83.8 ± 11.5 |
| Cc1ccc(OC(=O)Nc2ccc(NCc3ccc(F)cc3)cc2N)cc1 [JG-48-6, p-tolyl (2-amino-4-((4-fluorobenzyl)amino)phenyl)carbamate] | 70 ± 16.1 | 91.6 ± 11 | 83.7 ± 2.26 | 67.5 ± 10.2 | – | – | – | – | – | – | – | – | – | – | – | – | – | – | – |
| CCCCCCOC(=O)Nc1ccc(NCc2ccc(F)cc2)cc1N [NK-34-2, Hexyl (2-amino-4-((4-fluorobenzyl)amino)phenyl)carbamate] | 65.8 ± 6.14 | 60.1 ± 11.4 | 72.1 ± 13.4 | 73.2 ± 4.74 | – | – | – | – | – | – | – | – | – | – | – | – | – | 63 ± 11.8 | 61 ± 5.7 |
| CCOC(=O)Nc1ccc(NCc2ccc(-c3cccs3)cc2)nc1N [AM-11-3, Ethyl (2-amino-6-((4-(thiophen-2-yl)benzyl)amino)pyridin-3-yl)carbamate] | 89.8 ± 30.1 | 76.1 ± 12.8 | 89 ± 29.1 | 35.3 ± 5.69 | – | – | – | – | – | – | – | – | – | – | – | – | – | 64.1 ± 16.6 | 77.1 ± 25.2 |
| Nc1nc(NCc2ccc(F)cc2)ccc1NC(=O)Oc1ccccc1 [NK-41-1, Phenyl (2-amino-6-((4-fluorobenzyl)amino)pyridin-3-yl)carbamate] | 58.1 ± 2.08 | 59 ± 6.87 | 68.9 ± 7.71 | 70.3 ± 10.6 | – | – | – | – | – | – | – | – | – | – | – | – | – | 57.5 ± 3.62 | 53.4 ± 0.8 |
| CCOC(=O)Nc1ccc(NCc2ccc(-c3ccccc3)cc2)nc1N [NK-57-3, Ethyl (6-(([1,1′-biphenyl]-4-ylmethyl)amino)-2-aminopyridin-3-yl)carbamate] | 63.7 ± 10.1 | 48.9 ± 9.58 | 53.1 ± 14 | 62.3 ± 10.3 | – | – | – | – | – | – | – | – | – | – | – | – | – | 55.4 ± 14.8 | 61.7 ± 12.7 |
| CCOC(=O)Nc1ccc(NCCc2ccccc2)nc1N [JG-36-4, Ethyl (2-amino-6-(phenethylamino)pyridin-3-yl)carbamate] | 69.2 ± 7.1 | 50 ± 9.09 | 59.6 ± 9.05 | 60.5 ± 5.82 | – | – | – | – | – | – | – | – | – | – | – | – | – | 52.1 ± 11.5 | 56.9 ± 12 |
| CCOC(=O)Nc1ccc(NCc2ccccc2C(F)(F)F)nc1N [JG-34-4, Ethyl (2-amino-6-((2-(trifluoromethyl)benzyl)amino)pyridin-3-yl)carbamate] | 95.1 ± 10.3 | 91.5 ± 12.9 | 95.4 ± 19.3 | 77.7 ± 6.86 | – | – | – | – | – | – | – | – | – | – | – | – | – | 74.6 ± 2.18 | 72.4 ± 16.4 |

From patent US11369593B2 (Texas Tech University System, priority 2017, dated 2022)
